The values below come from US10478419B2, “Use of daphnoretin in prevention of tissue or organ transplant rejection or graft-versus-host-disease” (MacKay Memorial Hospital, priority 2017, dated 2019).

The test system of data set [1] is Ehrlich ascites tumor, cervical cancer and lung adenocarcinoma. To be noted: cited from earlier work.
For data set [2], the system named is hepatitis B surface antigen. To be noted: human hepatoma Hep3B cells; cited from earlier work.
Data set [3] concerns human monocyte-derived dendritic cells (DCs). Kind of data set: Morphological observation of monocyte-derived DCs (differentiation). In kind it is cell-based. The procedure: (§1) Human peripheral blood mononuclear cells were collected from healthy donors and were isolated using Histopaque (Amersham Pharmacia Biotech, Piscataway, N.J., USA) for density gradient centrifugation. Erythrocytes were lysed by using 0.9% ammonium chloride incubated for 3 min at 37° C. Thereafter, CD14^+ monocytes were purified by gradient magnetic sorting method using miniMACS system with anti-CD14 microbeads (Miltenyi Biotec, Bergisch Bladbach, Germany). After incubation at 37° C. for 2 hr, nonadherent cells were removed and adherent cells were collected. The purity of isolated CD14^+ monocytes was over 90% by using flow cytometric analysis. Immature DCs were generated from CD14^+ monocytes by culture in RPMI 1640 medium supplemented with 10% fetal calf serum, 100 ng/mL GM-CSF (Schering-Plough, Munich, Germany), 50 ng/mL IL-4 (R&D Systems, Minneapolis, Minn., USA), and daphnoretin (0, 1.1, 3.3, 10 or 30 μM) every 3 days for 6 days in a humidified 5% CO2 incubator. To trigger maturation of DCs, immature DCs were incubated with lipopolysaccharide (LPS) (5 ng/mL) (Sigma, St. Louis, Mo., USA) and/or a combination of cytokines including 5 ng/mL TNF-α, 5 ng/mL IL-1β, 15 ng/mL IL-6 (R&D Systems, Minneapolis, Minn., USA), and 1 μg/mL prostaglandin E2 (PGE2) (Sigma-Aldrich, St. Louis, Mo., USA) for 24 hr. […]

In data set [4] the test system is CD4+CD45RA+ naive T cells. Kind of data set: Allogenic naive T cell proliferation stimulated by matured DCs (BrdU). In kind it is cell-based, human. As to conditions: mature DCs : CD4+CD45RA+ cells 1:10 or 1:30; FIG. 4. The source says: Nonadherent cells from culture of isolated mononuclear cells were used to purify naïve T cells. Naïve T cells were enriched with a CD4^+CD45RA^+T cell isolation kit (Miltenyi Biotec) using a MIniMACS system with negative selection technique. Monocyte-derived DCs were harvested and irradiated (3,000 cGy in a single fraction) with 6 MeV X-ray generated by linear accelerator (Clinac® 1800, Varian Associates Inc., CA) at a dose of 4.0 Gy/min. Full electron equilibrium was ensured for each fraction by a parallel plate PR-60C ionization chamber (Capintel Inc., Ramsey, N.J., USA). […] The cells were then collected and the incorporated BrdU was detected using flow cytometry to estimate T cell proliferation.

Data set [5] has as its system acute rejection of skin allografts. Kind of data set: Skin allograft transplantation model.
Text: Male C57BL/6(H-2^b) and BALB/6(H-2^d) mice aged 6-8 weeks were purchased from Animal Resource Center of National Science Council of Taiwan (Taipei, Taiwan) and maintained in a room with 12 hr light/dark cycles. Standard laboratory chow and water were available ad libitum. […] Briefly, a 2×1 cm full-thickness skin graft was harvested from the donor mouse and sutured to the graft bed of a recipient mouse. The skin graft rejection was defined as necrosis of more than 80% of the epidermal surface. Daphnoretin (0.5 or 1.0 mg/Kg) and rapamycin (3.0 mg/Kg) were administered intraperitoneally daily until rejection was observed. Body weight was recorded and the white blood cell count was estimated by an automatic counter.
The subject of the next data set is protein kinase C (PKC). To be noted: human hepatoma Hep3B cells; cited from earlier work.
Data set [6] concerns human monocyte-derived dendritic cells (DCs). Nature of the data set: Flow cytometric analysis of surface markers on monocyte-derived DCs. Format: cell-based. Here is the method:
Human peripheral blood mononuclear cells were collected from healthy donors and were isolated using Histopaque (Amersham Pharmacia Biotech, Piscataway, N.J., USA) for density gradient centrifugation. Erythrocytes were lysed by using 0.9% ammonium chloride incubated for 3 min at 37° C. Thereafter, CD14^+ monocytes were purified by gradient magnetic sorting method using miniMACS system with anti-CD14 microbeads (Miltenyi Biotec, Bergisch Bladbach, Germany). After incubation at 37° C. for 2 hr, nonadherent cells were removed and adherent cells were collected. The purity of isolated CD14^+ monocytes was over 90% by using flow cytometric analysis. Immature DCs were generated from CD14^+ monocytes by culture in RPMI 1640 medium supplemented with 10% fetal calf serum, 100 ng/mL GM-CSF (Schering-Plough, Munich, Germany), 50 ng/mL IL-4 (R&D Systems, Minneapolis, Minn., USA), and daphnoretin (0, 1.1, 3.3, 10 or 30 μM) every 3 days for 6 days in a humidified 5% CO2 incubator. To trigger maturation of DCs, immature DCs were incubated with lipopolysaccharide (LPS) (5 ng/mL) (Sigma, St. Louis, Mo., USA) and/or a combination of cytokines including 5 ng/mL TNF-α, 5 ng/mL IL-1β, 15 ng/mL IL-6 (R&D Systems, Minneapolis, Minn., USA), and 1 μg/mL prostaglandin E2 (PGE2) (Sigma-Aldrich, St. Louis, Mo., USA) for 24 hr. It has been shown that monocyte-conditioned medium containing a combination of pro-inflammatory cytokines (i.e., TNF-α, IL-1, IL-6, and PGE2) or LPS triggers efficient DCs maturation. Daphnoretin was purchased from Sigma (St. Louis, Mo., USA) and dissolved in PBS as a stock solution (0.5 mg/mL). Dual-color immunostain was performed using fluorescein isothiocyanate (FITC)- and phycoerythrin (PE)-conjugated monoclonal antibodies (mAbs). The mouse anti-human mAbs IgG1:FITC/mouse IgG1:PE, and appropriate isotype controls were purchased from Serotec (Oxford, UK) and used for characterization of DCs. The isotype controls used in our study included anti-CD11c and anti-CD14 (for IgG-FITC), anti-CD1a-PE, anti-CD80-PE, anti-CD83-PE, anti-HLA-DR-PE and anti-DC-SIGN-PE. Cells were incubated with saturating concentrations of PE-conjugated mAbs and primary CD11c mAbs followed by IgG-FITC at 4° C. for 30 min. After washing twice with PBS, 1×10^6 cells were applied to a FACS caliber flow cytometer (BD Biosciences, San Jose, Calif., USA). Data were collected and analyzed using CellQuest Software (BD Biosciences, San Jose, Calif., USA).
On the technique in general: In flow cytometry, cells or beads pass a laser one at a time.

Data set [7] has the same test system. Kind of data set: Number of viable DCs, trypan blue dye exclusion test. In kind it is cell-based. To be noted: daphnoretin 1.1, 3.3, 10 or 30 μM, FIG. 3. The procedure: as §1
Data set [8] has as its system phosphorylated c-Jun N-terminal kinase (p-JNK). Nature of the data set: Immunoblot analysis of phosphorylated JNK in DCs. As to conditions: FIG. 5 panels A and B. In kind it is cell-based, human. Here is the method:
as §1

Take `COc1cc2cc(Oc3ccc4ccc(=O)oc4c3)c(=O)oc2cc1O` [daphnoretin, 7-hydroxy-6-methoxy-3,7′-dicoumaryl ether]: in data set [1], the anti-cancer activity result is “possess anti-cancer activity”. For the same molecule, the “expression of hepatitis B surface antigen” value in data set [2] is reported as “suppressing the expression of hepatitis B surface antigen”. Also, the “differentiation process of DCs (morphology, formation of dendrites)” value in data set [3] (daphnoretin 1.1, 3.3, 10 or 30 μM, FIG. 1) is on record as “suppressed”. Besides, the “morphology of DCs” value in data set [3] (treated with daphnoretin and anisomycin, FIG. 5 panel C) was “remained rounded and without the formation of any dendrites”. In addition, the “proliferation of DCs stimulated T cells” value in data set [4] was “suppressed”. In addition, the “fraction of the survived skin graft” value in [5] (daphnoretin 1.0 mg/Kg/day intraperitoneally, FIG. 6 panel A) is recorded as “even higher than that treated of the rapamycin-treated mouse”. Besides, the “body weight of the recipient mouse” value in data set [5] (daphnoretin dose employed, vs control, FIG. 6 panel B) was “did not vary significantly”. Further, in data set [5] (daphnoretin dose employed, vs control, FIG. 6 panel C), the “white blood cell count of the recipient mouse” value was “did not vary significantly”. In the data set with protein kinase C (PKC), the “protein kinase C (PKC) activity and intracellular level” value is listed as “inactivating protein kinase C (PKC)”. Further, the “expression of CD1a” value in data set [6] (FIG. 2 panel A) is “suppressed”. In addition, the “expression of macrophage marker CD14” value in [6] (FIG. 2 panel B) is on record as “unaffected”. Besides, the “expression of CD40” value in [6] (FIG. 2 panel C) is given as “suppressed”. Also, the “expression of CD83” value in data set [6] (FIG. 2 panel D) is listed as “suppressed”. The “expression of DC-SIGN” value in [6] (FIG. 2 panel E) is “suppressed”. Besides, the “cell viability (cell numbers of mature and immature DCs)” value in data set [7] is “reduced the cell numbers of both mature and immature DCs in dose-dependent manner”. In [8] (DCs treated with daphnoretin), the “level of p-JNK in DCs” value is “decrease”.
As for `COc1ccc(C[C@H]2NC[C@H](O)[C@H]2OC(C)=O)cc1` [anisomycin, reference compound], the “level of p-JNK in DCs treated with daphnoretin, effect of added JNK activator” value in data set [8] (co-incubated with daphnoretin) was “could reverse this decrease”.
